Target: T1, CYP17 (steroid 17-alpha-hydroxylase/17,20 lyase) (Homo sapiens, UniProt P05093)
T1 sequence (P05093 whole entry): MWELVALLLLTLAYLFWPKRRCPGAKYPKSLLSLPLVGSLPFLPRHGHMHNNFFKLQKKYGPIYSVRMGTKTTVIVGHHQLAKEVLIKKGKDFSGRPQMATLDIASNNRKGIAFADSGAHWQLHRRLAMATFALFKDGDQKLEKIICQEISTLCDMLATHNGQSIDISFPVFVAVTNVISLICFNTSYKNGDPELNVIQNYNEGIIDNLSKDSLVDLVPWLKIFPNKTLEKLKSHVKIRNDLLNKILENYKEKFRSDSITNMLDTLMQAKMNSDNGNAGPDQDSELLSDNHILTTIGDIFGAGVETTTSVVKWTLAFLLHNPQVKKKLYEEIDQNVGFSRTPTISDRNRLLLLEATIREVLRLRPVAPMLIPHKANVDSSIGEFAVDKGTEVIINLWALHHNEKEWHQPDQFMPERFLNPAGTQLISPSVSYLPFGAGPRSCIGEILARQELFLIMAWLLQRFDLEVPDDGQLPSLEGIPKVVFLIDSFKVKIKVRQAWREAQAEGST
Test: in vitro
Description: Inhibition of human CYP17 expressed in Escherichia coli pJL17/OR coexpressed with rat NADPH-P450 reductase at 2.5 uM

Structure (SMILES) | inhibition at 2.5 µM
N#Cc1ccc(C(c2cccc3[nH]ccc23)n2cncn2)cc1 (stereo not drawn) | < 10%
N#Cc1ccc(C(c2ccc3cc[nH]c3c2)n2ccnc2)cc1 (racemic) | 26%
N#Cc1ccc(C(c2cccc3[nH]ccc23)n2ccnc2)cc1 (stereo not drawn) | 18%

Source: ChEMBL document CHEMBL1155912, “Synthesis of 6- or 4-functionalized indoles via a reductive cyclization approach and evaluation as aromatase inhibitors” (Bioorg Med Chem Lett, 2008)
